Source: patent US9587225B2, “Low-molecular-compound for improving production, maintenance and proliferation of pluripotent stem cells, composition comprising the same, and culture method” (KOREA RESEARCH INSTITUTE OF BIOSCIENCE AND BIOTECHNOLOGY, priority 2012, dated 2017)

Assays:
[1] = test system: human skin fibroblasts (hFFs); experiment: Reprogramming of human skin fibroblasts, AP-positive colony count; format: cell-based
Experimental: In order to screen low-molecular-weight compounds that promote the production of reprogrammed stem cells, human fibroblasts were transduced with reprogramming viruses (Oct4, Sox2, Klf4, and c-Myc). After 5 days, the cells were seeded on Matrigel-coated plates, and then cultured in MEF-conditioned medium (CM) containing each of low-molecular-weight compounds until colonies having a morphology similar to that of human embryonic stem cells were formed. After 15 days, alkaline phosphatase (AP) activity was measured, and compounds that increased the efficiency of reprogramming compared to that of a control group were selected. […] The values shown on the graph are mean values. The data are expressed as mean±SD (n=3).
For production of iPSC, human skin fibroblasts (hFFs) and mouse embryonic fibroblasts (MEFs) were seeded on gelatin-coated 6-well plates at a concentration of 1×10^5 cells per well at one day before transfection and were transfected with virus in the presence of polybrene (8 μg/ml). At 5 days after the transfection, hFFs or MEFs were collected by trypsin treatment and seeded again on Matrigel-coated 6-well plates at a concentration of 5 to 6×10^4 cells per well in order to perform experiments in feeder-free conditions. The medium was replaced with MEF-CM medium containing 10 ng/ml of bFGF. MEF-CM was prepared as γ-irradiated MEF according to a known method (Xu C. Nat Biotechnol 19, 971-974), and […] bFGF was added to MEF-CM. The medium was replaced at 2-day intervals. At 20 days after the transfection, hESC-like colonies were collected and transferred to 12-well plates having MEFs as feeder cells, and then continuously cultured using the hESC culture method described in Example 2.
The OSKM reprogramming factor virus was produced according to the method of Example 3. In order to screen low-molecular-weight compounds that increase the efficiency of reprogramming, hFFs and mouse embryonic fibroblasts (OG2-MEF; hemizygous for the Oct4-GFP transgene) were seeded on gelatin-coated 6-well plates at a concentration of 1×10^5 cells at one day before transfection, and then transfected with virus in the presence of polybrene (8 μg/ml). At 5 days after the transfection, hFFs or MEFs were collected by trypsin treatment and seeded again on Matrigel- or gelatin-coated 12-well plates at a concentration of 3.5×10^4 cells per well in order to perform experiments under feeder-free conditions. The medium was replaced with 10 ng/ml bFGF-containing MEF-CM or mouse embryonic stem cell culture medium, and then the prepared low-molecular-weight compounds that are trans-3-indoleacrylic based compounds were added at various concentrations. The culture medium containing each of the low-molecular-weight compounds was replaced at 2-day intervals. At 15 days after the transfection, the number of either colonies showing AP activity or colonies expressing endogenous Oct4 GFP fluorescence was measured to determine the efficiency of reprogramming.
ALP staining was performed using a commercial ALP kit (Sigma) according to the manufacturer's instruction. Images of ALP-positive cells were recorded using HP Scanjet G4010. In addition, bight field images were obtained using an Olympus microscope (IX51, Olympus, Japan).
To discover low-molecular-weight compounds that involved in the reprogramming of human somatic cells, reprogramming regulators of human skin fibroblasts were investigated by analog library screening of thirty selected novel trans-3-indoleacrylic acid-based compounds. Human skin fibroblasts were transfected with OSKM reprogramming virus, and after 5 days, the cells were seeded on Matrigel-coated 12-well plates and incubated in MEF-conditioned medium (CM) containing each of the low-molecular-weight compounds until colonies having a morphology similar to that of human embryonic stem cells were formed.

[2] = test system: Mouse embryonic fibroblasts (OG2-MEF; hemizygous for the Oct4-GFP transgene); experiment: Reprogramming of mouse embryonic fibroblasts, Oct4-GFP colony count; format: cell-based
Experimental: FIG. 1 is a process of screening mouse cell reprogramming factors using analog library screening of novel trans-3-indoleacrylic acid-based compounds. In order to screen low-molecular-weight compounds that promote the production of reprogrammed stem cells, mouse embryonic stem cells (OG2-MEF; hemizygous for the Oct4-GFP transgene) were transduced with reprogramming viruses (Oct4, Sox2, Klf4, and c-Myc). After 5 days, the cells were seeded on gelatin-coated plates and then cultured in mouse embryonic stem cell culture media containing each of low-molecular-weight compounds until colonies having a morphology similar to that of mouse embryonic stem cells were formed. After 15 days, the number of colonies expressing endogenous Oct4 GFP fluorescence was measured, and compounds that increased the efficiency of reprogramming compared to that of a control group were selected. […] Oct4 (O), Sox2 (S), Klf4 (K), and cMyc (M). FIG. 1B is a graph showing the increase in efficiency of reprogramming by RSC-133 and ID-558 among screened compounds. The values shown on the graph are mean values. The data are expressed as mean±SD (n=3).
The OSKM reprogramming factor virus was produced according to the method of Example 3. […] At 15 days after the transfection, the number of either colonies showing AP activity or colonies expressing endogenous Oct4 GFP fluorescence was measured to determine the efficiency of reprogramming.
To discover low-molecular-weight compounds that are involved in the reprogramming process, analog library screening of novel trans-3-indoleacrylic acid-based compounds was performed in mouse cells. Mouse embryonic fibroblasts (OG2-MEF: hemizygous for the Oct4-GFP transgene) were transfected with reprogramming viruses of Oct4, Sox2, Klf4 and c-Myc (OSKM), and after 5 days, the cells were seeded on gelatin-coated 12-well plates and incubated with mouse embryonic stem cell culture medium containing each of low-molecular-weight compounds until colonies having a morphology similar to that mouse stem cells were formed so that endogenous Oct4 GFP fluorescence was expressed (FIG. 1A). […]

NC(=O)c1cccc(NC(=O)/C=C/c2c[nH]c3ccccc23)c1 [RSC-133, 3-[3-(1H-indol-3-yl)-acrylamido]-benzamide]
concentration that increases the efficiency of reprogramming to the highest level ([1]; 0, 0.1, 1, 5, 10 and 20 μM tested): 10 µM
efficiency of reprogramming at 20 μM versus 10 μM ([1]; 20 μM (FIG. 8)): did not increase
efficiency of reprogramming, hypoxic conditions ([1]; 5% O2, compared to control group (FIG. 4)): showed the effect of increasing the efficiency of reprogramming of human skin fibroblasts
efficiency of reprogramming, normal conditions ([1]; 21% O2, compared to control group (FIG. 4)): showed the effect of increasing the efficiency of reprogramming of human skin fibroblasts
efficiency of reprogramming (alkaline phosphatase activity) ([1]; OSKM, MEF-CM, after 15 days, compared to control group (FIG. 3)): increased the efficiency of reprogramming of human skin fibroblasts
effect on the promotion of reprogramming of human cells relative to AZA, VPA, TSA and SB431542 ([1]; RSC 133 10 μM, AP-positive colonies, OSKM (FIG. 2b)): 1.5-3.3 times
concentration dependence of the increase in efficiency of reprogramming ([1]; treatment concentration of up to 10 μM, AP-positive colonies (FIG. 8)): concentration-dependent manner
efficiency of reprogramming, continuous treatment ([1]; treatment throughout the reprogramming process (condition 1 in FIG. 10)): increased to the highest level
efficiency of reprogramming (number of colonies expressing endogenous Oct4 GFP fluorescence) ([2]; OG2-MEF transfected with OSKM, after 15 days, compared to control group): showed the effect of increasing the efficiency of reprogramming
efficiency of reprogramming compared to reported compounds ([2]; vs 5-Azacytidine, BIX-01294, VPA or increased MOI of OSKM virus (FIG. 2a)): greatly increased the efficiency of reprogramming
